ChEMBL document CHEMBL4825775, “Substituted 2,3-Benzodiazepines Derivatives as Bromodomain BRD4 Inhibitors” (ACS Med Chem Lett, 2021)

Assays:
[1] = biological target: T1, Bromodomain-containing protein 4 (Homo sapiens, UniProt O60885); experiment: Inhibition of recombinant human His-tagged BRD4 BD1 using biotin-labelled histone H4 acetylated peptide as substrate by TR-FRET assay
[2] = biological target: T1, Bromodomain-containing protein 4; experiment: Inhibition of recombinant human His-tagged BRD4 BD2 using biotin-labelled histone H4 acetylated peptide as substrate by TR-FRET assay

| IC50 [1] | IC50 [2] | Compound |
| --- | --- | --- |
| 14.9 nM | 150 nM | CNC(=O)N1N=C(c2ccc(N3CCN(C(=O)COCCOCCOCC(=O)Nc4cccc5c4C(=O)N(C4CCC(=O)NC4=O)C5=O)CC3)cc2)c2cc(OC)c(OC)cc2C[C@@H]1C (stereo partly drawn) |
| 24.9 nM | 136 nM | CNC(=O)N1N=C(c2ccc(C(=O)NCCCCNC(=O)COc3cccc4c3C(=O)N(C3CCC(=O)NC3=O)C4=O)cc2)c2cc(OC)c(OC)cc2C[C@@H]1C (stereo partly drawn) |
| 19.3 nM | 166 nM | CNC(=O)N1N=C(c2ccc(N3CCN(C(=O)CCOCCOCCOCCNc4ccc5c(c4)C(=O)N(C4CCC(=O)NC4=O)C5=O)CC3)cc2)c2cc(OC)c(OC)cc2C[C@@H]1C (stereo partly drawn) |
| 18.6 nM | 78.4 nM | CNC(=O)N1N=C(c2ccc(N3CCN(C(=O)COCCOCCOCCOCC(=O)Nc4cccc5c4C(=O)N(C4CCC(=O)NC4=O)C5=O)CC3)cc2)c2cc(OC)c(OC)cc2C[C@@H]1C (stereo partly drawn) |
